Measurements taken from patent publication US8927520B2, “Antibacterial compounds” (Institut Pasteur, priority 2010, dated 2015).

Assays:
[1] = biological target: LmNADK1 (NADK from Lysteria monocytogenes) (Listeria monocytogenes serovar 1/2a (strain ATCC BAA-679 / EGD-e), UniProt Q8Y8D7); test: NAD kinase activity assay (coupled Glucose-6-phosphate dehydrogenase, absorbance at 340 nm); type: biochemical; details: for Ki: Dixon plots, 4 mM ATP, NAD 0.2, 0.5 and 1 mM, read-out: Ki, NADK from Lm; for Inhibition of LmNADK1 (in words): purified enzyme
Experimental: (§1) Expression, purification and activity assay. His-tagged LmNADK1 wild-type and His-tagged SaNADK were expressed and purified on cobalt-based IMAC resins (Clontech) as previously published^13. The NAD kinase activity was determined by measuring the absorbance at 340 nm to follow the formation of reduced NADP produced by a coupling enzyme (Glucose-6-phosphate dehydrogenase from yeast). Coupling enzyme and its substrate were purchased from Sigma-Aldrich. The assay was performed in a 0.5 mL sample of (50 mM Tris-HCl pH 7.4, 10 mM MgCl2, 1 mM Glucose-6-phosphate, 2 mM sodium citrate) containing Glucose-6-phosphate dehydrogenase and NADK at 30° C. using a spectrophotometer Eppendorf ECOM 6122.
(§2) For inhibitor assays, IC50 was determined, in the presence of 1 mM NAD and 4 mM ATP (for LmNADK1) or 2 mM ATP (for SaNADK). Dixon plots were used to determine KI in the presence of 4 mM ATP (for LmNADK11) or 2 mM ATP (for Sa NADK) and three NAD concentrations (0.2, 0.5 and 1 mM). It was also checked that the inhibitors had no effect on the coupling enzyme activity.

[2] = biological target: SaNADK (NADK from Staphylococcus aureus) (Staphylococcus aureus (strain COL), UniProt Q5HH78); test: as above; type: biochemical; details: Dixon plots; 2 mM ATP; NAD 0.2, 0.5 and 1 mM; read-out: Ki, NADK from Sa
Experimental: as §1, §2

[3] = test system: Staphylococcus aureus S25 strain; test: Bactericidal activity assay; type: cell-based; details: S. aureus, overnight at 37° C., inhibitor 1 to 100 μg/mL, CFU count
Experimental: 100 μL suspensions of S. aureus corresponding to 2.10^3 bacteria were incubated overnight at 37° C. with increasing concentrations of inhibitor (1 to 100 μg/mL). Bacterial killing (percent) was determined as the ratio of colony forming units after incubation with inhibitor to that of colony forming units after incubation with buffer alone. Data are mean values ±SD from three separate experiments. * indicates a statistical significance in Student's t-test of p<0.05.
The Staphylococcus aureus S25 strain, a human clinical isolate, was grown overnight in brain heart infusion (BHI) broth at 200 rpm and 37° C. Overnight cultures were diluted to OD600nm=0.05 in BHI-phosphate buffer saline (25% v/v). Bacteria were grown at 200 rpm and 37° C. until cultures reached OD600nm=0.5. Bacterial suspensions were adjusted to a concentration of 2.10^5 bacteriamL. In a microtiter plate, 2.10^3 bacteria were incubated overnight at 200 rpm and 37° C. with increasing concentrations of NADK inhibitor in 0.1 mL BHI-phosphate buffer saline (25% v/v) per well. To quantify the bactericidal activity, each bacterial suspension was serially diluted in BHI and plated on BHI agar plates in duplicates. Plates were incubated at 37° C. for 24 h to 48 h and the number of colony forming units was determined.

[4] = test system: Staphylococcus aureus S25 strain; details: reference value for comparison; cited from earlier work
[5] = biological target: NADK from Listeria monocytogenes (Listeria monocytogenes serovar 1/2a (strain ATCC BAA-679 / EGD-e), UniProt Q8Y8D7); details: literature value; read-out: K (affinity), inhibition of NADK; cited from earlier work

Compound | Ki [1] [µM] | Inhibition of LmNADK1 (in words) [1] | Ki [2] [µM] | Concentration giving significant bactericidal activity [3] [µg/mL] | Efficiency of reference compound (bactericidal concentration) [4] [µg/mL] | Ki [5] [µM]
5′-Amino-5′-deoxyadenosin-8-yl-thio-N-[(5′-amino-5′-deoxy-adenosine)methyl]acetamide [Inhibitor 17] | 30 | micromolar range | 50 | 1 | – | –
8-[3-(Adenosin-5′-yl)methoxyprop-1-yn-1-yl]adenosine [Inhibitor 22] | 20 | micromolar range | 15 | 1 | – | –
Nc1ncnc2c1ncn2[C@@H]1O[C@H](CNCC#Cc2nc3c(N)ncnc3n2[C@@H]2O[C@H](CO)[C@@H](O)[C@H]2O)[C@@H](O)[C@H]1O [Inhibitor 19, 8-[3-N-(5′-Deoxyadenosin-5′-yl)aminoprop-1-yn-1-yl]adenosine] | 10 | micromolar range | 5 | 10 | – | –
CN[C@H](CC(C)C)C(=O)N[C@H]1C(=O)N[C@@H](CC(N)=O)C(=O)N[C@H]2C(=O)N[C@H]3C(=O)N[C@H](C(=O)N[C@H](C(=O)O)c4cc(O)cc(O)c4-c4cc3ccc4O)[C@H](O)c3ccc(c(Cl)c3)Oc3cc2cc(c3O[C@@H]2O[C@H](CO)[C@@H](O)[C@H](O)[C@H]2O[C@H]2C[C@](C)(N)[C@H](O)[C@H](C)O2)Oc2ccc(cc2Cl)[C@H]1O [vancomycin] | – | – | – | – | 8 | –
Di-5′-thioadenosine [DTA] | – | – | – | – | – | ~20
